Test results from patent publication US7977107B2, “Oral detection test for cannabinoid use” (LabOne, Inc., priority 2004, dated 2011).

Key:
[1] = Δ^9-THC metabolism in oral fluid (incubation at about 37° C., THCA assayed versus time); assay type: in vitro ADME; conditions: 10 ng/ml Δ^9-THC in certified negative oral fluid, several hours, triplicate
Method: In this example, Δ^9-THC metabolism in oral fluid was investigated. Δ^9-THC was incubated at about 37° C. in oral fluid for several hours. THCA levels were assayed versus time to ensure metabolism of Δ^9-THC to THCA or THCA-glucuronide in the oral cavity or mucosa was not a possible source of the measured result. This was performed in triplicate at 10 ng/ml using certified negative oral fluid samples. Δ^9-THC standard material of known purity was used.
Δ^9-THC metabolism to THCA was not detected during this experiment. Further, it has been reported that Δ^9-THC metabolism occurs in the liver. See Watanabe, et al., A cytochrome P450 isozyme having aldehyde oxygenase activity plays a major role in metabolizing cannabinoids by mouse hepatic microsomes, Biochem Pharmacol., Vol. 46 No. 3, at pp. 405-11 (August 1993).

[2] = Detection of THCA in oral fluid samples of test subjects by GC/MS/MS; assay type: in vivo, human; conditions: Group C: 26 samples screened and confirmed positive for Δ^9-THC
From the text: Oral fluid samples from 223 test subjects were collected with a commercially available INTERCEPT® oral fluid collection device manufactured by OraSure Technologies, Inc. (Bethlehem, Pa.) in accordance with the manufacturer's instructions. This device comprises an absorbent collection pad (e.g., cotton or a sponge) affixed to the end of a handle. The collection pad of the collection device is placed in the mouth of the subject until the collection pad is substantially saturated with oral fluid, which typically takes about four minutes.
The oral fluid samples were obtained from two drug testing facilities. The samples were divided into three groups: negative screens (A), positive screens (B), and positive confirms (C). Group A consisted of 144 oral fluid samples that had been tested by ELISA for the parent compound Δ^9-THC and were negative for this test (cutoff 4.0 ng/ml Δ^9-THC, cross reactive with THCA at 0.33 ng/ml, no confirmation with GC/MS/MS performed). […] Finally, Group C consisted of 26 oral fluid samples that screened positive by ELISA for the parent compound Δ^9-THC and were also confirmed positive for Δ^9-THC by GC/MS/MS. Each of these samples from Group A, B, and C was then tested for the presence or absence of THCA by GC/MS/MS in accordance with the present invention. […]
Quantitation was performed using the internal standard area of the 495-peak ratio with the 492-peak. […]

Compound	Δ^9-THC metabolism to THCA [1]	THCA level in oral fluid (highest) [2] [pg/mL]
CCCCCc1cc(O)c2c(c1)OC(C)(C)[C@@H]1CCC(C)=C[C@@H]21 [Δ^9-THC, Δ^9-tetrahydrocannabinol]	not detected	–
11-nor-Δ^9-THC carboxylic acid [THCA]	–	≤ 142
